Measurements reported in patent US20120135089A1, “E3 LIGASE INHIBITORS” (priority 2009, published 2012).
Several values for one entry are separate records, joined by “and”; a condition that tells them apart may be missing. Equal entries are not always repeated. Where two headings read alike, the source gives them in different places.

How the values were obtained:
[1] = biological target: T1, Mdm2-luciferase fusion protein (Homo sapiens, UniProt Q00987); assay: cell-based Mdm2 auto-ubiquitination luminescence assay, Mdm2-luciferase cell line; settings: for luminescence of the Mdm2-luciferase cell line: 384-well format; for EC50: 2 hours treatment
T1 construct: Using full-length Mdm2 allowed for the presence of all domains of Mdm2; expressed in transfected cells
Method: Cells were plated in 384-well format and treated with MG132 (2 hours) or cycloheximide (30 minutes). Steadylite luminescence buffer (PerkinElmer) was added and the relative luminescence levels determined on a Victor3 Plate Reader. Each graph represents the median of 5 replicates normalized to a no treatment control, and one standard deviation is shown. […] The graphs and EC50 values were determined using Graphpad PRISM®. […] U2OS, RKO, and HCT116 cells (p53 wild-type) were incubated with 5 μg/ml (14 μM) of MEL23, 5 μg/ml (15 μM) of MEL24, or 10 μM of MG132 for 6 hours. Cells were lysed and analyzed by Western blotting using anti-Mdm2, anti-p53, and anti-eIF4E antibodies. NT indicates a no treatment control. […] MCF7 cells (p53 wild-type) were incubated with 30 μg/ml (51 μM) etoposide alone or in combination with 50 μM AlIn or 5 μg/ml (14 μM) MEL23, or 5 μg/ml (15 μM) MEL24 for 16 hours. Cells were lysed and analyzed by Western blotting using anti-MDMX and anti-actin antibodies.
The Mdm2-luciferase cell line was seeded at 7,500 cells per well, in 384-well white plates (PerkinElmer, Waltham, Mass., Cat. No. 6007688), in 27 μl of media (DMEM with FBS and P/S). Assay plates with cells were incubated at 37° C. overnight to allow cells to adhere. After 24 hours, 2 μl from the ‘mother’ plate (4 mg/ml) was transferred to a ‘daughter plate’ containing 148 μl media in order to dilute the compound 1:75. Next, 3 μl from each well of the ‘daughter plates’ was added to triplicate assay plates for a final concentration of 5.33 μg/ml. Assay plates were incubated at 37° C. for 2 hours. Then the cells were lysed with the addition of 30 μl of luminescence buffer (PerkinElmer, Cat. No. 6016989), and the plates were incubated at room temperature for 30 minutes before being analyzed on a Victor3 Plate Reader (PerkinElmer) for luminescence. […] All repurchased compounds were tested in a 2-fold dilution series via the same protocol as the primary screening. All transfers were conducted using a BioMek (Beckman Coulter, Fullerton, Calif.). […] This was determined by comparing the negative control, no treatment, to the positive control, 10 μM MG132.
To identify Mdm2 E3 ligase inhibitors, a high-throughput cellular assay to measure changes in Mdm2 auto-ubiquitination and degradation was designed. This assay took advantage of the fact that Mdm2 can regulate itself in cells through ubiquitination and degradation (8). Two fusion proteins were constructed for the assay: (a) a wild-type Mdm2-luciferase fusion protein, which can auto-ubiquitinate and thereby target itself for degradation; and (b) a mutant Mdm2(C464A)-luciferase fusion protein. Both fusion proteins were constructed with luciferase N-terminal to Mdm2. The C464A mutation disrupts a metal binding site in the RING domain, thereby preventing Mdm2 E3 ligase activity (8). Small molecules that increase the luminescence of the Mdm2-luciferase fusion protein without increasing the luminescence of the Mdm2(C464A)-luciferase fusion protein are likely inhibiting Mdm2 E3 ligase activity or the proteasomal degradation of Mdm2. Alternatively, small molecules that increase the luminescence of both fusion proteins are likely affecting transcription, translation, or have a general cellular impact that is not dependent on the E3 ligase activity of Mdm2 or proteasomal degradation.

[2] = system: p53-Ser15 phosphorylation; assay: p53-Ser15 phosphorylation in RKO cells (Western blot); format: cell-based, human; settings: 6 hours
Method: H1229 cells were transfected with Mdm2-Flag or remained untransfected. Cells were treated with 5 μg/ml (14 μM) MEL23, 5 μg/ml (15 μM) MEL24, 10 μM MG132, or 1 μg/ml of doxorubicin for 6 hours. Cells were lysed and analyzed by Western blotting using anti-Mdm2 and anti-actin antibodies. The lower band indicated with a star seen with the Mdm2 antibody is a non-specific band. NT indicates a no treatment control. […] RKO and RK0-E6 cells were treated with 5 μg/ml (14 μM) MEL23, 5 μg/ml (15 μM) MEL24, 10 μM MG132, 0.5 μg/ml doxorubicin, 0.5 μg/ml camptothecin or 25 μg/ml Etoposide for 6 hours. Cells were lysed and analyzed by Western blotting using anti-Mdm2, anti-p53, and anti-actin antibodies. The lower band indicated with a star seen with the anti-Mdm2 antibody is a non-specific band. […] RKO cells were treated with 5 μg/ml (14 μM) MEL23, 5 μg/ml (15 μM) MEL24, 10 μM MG132 or 2 μg/ml doxorubicin for 6 hours. Cells were lysed and analyzed by Western blotting using anti-Mdm2, anti-p53, anti-phospho-Ser15 p53, and anti-eiF4E antibodies.
Cells were seeded and treated with the indicated compound(s). Cells were lysed after each time point in a buffer of 50 mM TrisHCl pH 7.5, 200 mM NaCl, 0.5% NP-40, and 1 complete mini EDTA-free protease inhibitor cocktail tablet per 10 mL of buffer (Roche, Cat. No. 8360170). Protein content was quantified using a Biorad protein assay reagent (Bio-Rad Laboratories, Hercules, Calif., Cat. No. 500-0006). SDS sample buffer was added to the samples, and the mixture was boiled for 5 minutes. Equal amounts of protein were resolved on a 1D SDS-PAGE gel. Following separation proteins were transferred to nitrocellulose membrane, blocked with 5% milk, and then incubated with primary antibody overnight at 4° C. The membrane was incubated with secondary-HRP antibody for 45 minutes at room temperature and developed with SuperSignal West Pico Substrate (Pierce, Rockford, Ill., Cat. No. 34080).

T1 sequence (Q00987 whole entry, the tested form may be a part): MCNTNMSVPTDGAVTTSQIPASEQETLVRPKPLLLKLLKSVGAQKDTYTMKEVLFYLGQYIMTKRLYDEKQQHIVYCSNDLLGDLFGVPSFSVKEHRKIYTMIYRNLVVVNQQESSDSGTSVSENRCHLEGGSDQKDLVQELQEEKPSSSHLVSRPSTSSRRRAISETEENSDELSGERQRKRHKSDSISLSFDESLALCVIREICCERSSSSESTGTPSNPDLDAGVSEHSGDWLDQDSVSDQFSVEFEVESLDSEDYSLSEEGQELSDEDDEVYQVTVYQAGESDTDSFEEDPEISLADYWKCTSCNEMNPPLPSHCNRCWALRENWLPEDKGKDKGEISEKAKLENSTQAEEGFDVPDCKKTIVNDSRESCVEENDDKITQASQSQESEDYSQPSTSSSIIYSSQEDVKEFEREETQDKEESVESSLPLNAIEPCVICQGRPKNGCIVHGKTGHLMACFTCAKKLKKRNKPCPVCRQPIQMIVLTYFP

| Compound | luminescence of the Mdm2-luciferase cell line [1] | EC50 ([1]; EC50, Mdm2-luciferase cell line) | phosphorylation of p53 at serine-15 [2] | EC50 ([1]; Mdm2-luciferase cell line, read-out: EC50 (converted)) |
| --- | --- | --- | --- | --- |
| CCCCn1c(=O)[nH]c(O)c(C2NCCc3c2[nH]c2ccccc32)c1=O (stereo not drawn) [MEL23] | increased the luminescence of the Mdm2-luciferase cell line to a similar level as with MG132 treatment | 7.62 µM and 7.5 µM | lack of phosphorylation of p53 at serine-15 |  |
| Cn1c(O)c(C2NCCc3c2[nH]c2ccccc32)c(=O)n(C)c1=O (stereo not drawn) [MEL24] | increased the luminescence of the Mdm2-luciferase cell line to a similar level as with MG132 treatment |  | lack of phosphorylation of p53 at serine-15 | 9.19 µM and 9.2 µM |
